Biological target: T1, Human full length PKD1 (Homo sapiens, UniProt Q15139)
T1 construct: Human full length PKD1 at ˜100 μg/mL purchased from Upstate Ltd; purchased Upstate Ltd 14-508
T1 sequence (Q15139 1-912): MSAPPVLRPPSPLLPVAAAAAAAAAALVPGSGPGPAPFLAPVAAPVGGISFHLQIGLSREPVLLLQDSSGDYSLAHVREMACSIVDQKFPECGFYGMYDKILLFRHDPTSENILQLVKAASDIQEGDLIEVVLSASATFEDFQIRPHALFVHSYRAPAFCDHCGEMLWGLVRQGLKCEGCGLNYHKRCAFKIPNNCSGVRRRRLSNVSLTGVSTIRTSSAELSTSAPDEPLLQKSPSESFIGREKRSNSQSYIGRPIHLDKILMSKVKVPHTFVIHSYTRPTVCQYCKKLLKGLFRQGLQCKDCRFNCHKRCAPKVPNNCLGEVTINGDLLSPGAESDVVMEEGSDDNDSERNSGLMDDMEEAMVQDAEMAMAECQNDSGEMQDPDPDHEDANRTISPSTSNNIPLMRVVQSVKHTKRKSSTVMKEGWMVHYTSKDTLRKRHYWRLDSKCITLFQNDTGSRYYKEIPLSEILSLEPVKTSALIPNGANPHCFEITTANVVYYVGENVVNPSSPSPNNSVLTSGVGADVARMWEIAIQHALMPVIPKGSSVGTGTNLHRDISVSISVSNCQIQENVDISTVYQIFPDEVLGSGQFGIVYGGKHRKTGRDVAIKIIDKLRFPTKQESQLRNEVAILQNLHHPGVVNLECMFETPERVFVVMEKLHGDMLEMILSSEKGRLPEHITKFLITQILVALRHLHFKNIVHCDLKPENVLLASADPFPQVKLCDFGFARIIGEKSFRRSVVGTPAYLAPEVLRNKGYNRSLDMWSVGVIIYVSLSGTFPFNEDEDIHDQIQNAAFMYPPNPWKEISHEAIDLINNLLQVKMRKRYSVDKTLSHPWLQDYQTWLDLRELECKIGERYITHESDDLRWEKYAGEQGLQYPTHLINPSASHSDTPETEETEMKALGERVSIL
Test: PKD1 (Human Full Length) Enzyme Activity Assay (IMAP fluorescence polarisation)
Type: biochemical
Conditions: 10 μM ATP, 10 point dose-response
Procedure: PKD1 (Human Full Length) Enzyme Activity Assay
Kinase Assay Reaction Buffer: This consisted of 0.22 μM filtered 25 mM HEPES and 2 mM MgCl2 pH 7.5.
Kinase Enzyme Human full length PKD1 at ˜100 μg/mL purchased from Upstate Ltd (Product code 14-508) was obtained from aliquots stored at −70° C. It was prepared with a final concentration of 0.3 μg/mL by diluting 1:300 in Reaction Buffer (30 μL per 9 mL-5 mL per plate with an additional 4 mL dead volume) and vortexing prior to use.
Substrate: Fluorescein labelled glycogen synthase-derived peptide (FI)-KKLNRTLSVA (also known as MAPKAP K2 substrate) was obtained from Molecular Devices (Product code R7127). […]
The fluorescence polarisation of the substrate in each well was recorded using an analyst microplate reader (Molecular Devices) with a single read at Ex485 Em535 (Analyst settings: Z Height 5 mm, G Factor 0.95, Reads/well 1, Integration 100000 μs, Gain Sensitivity 2).
Percentage inhibition was calculated based on activity of the test sample minus the average values in the blank wells relative to the average values measured in control wells minus the average values in the blank wells.
IC50 values were calculated from 10 point dose sigmoid ‘dose-response’ curves using XIfit software (IDBS inc, USA). […]

`CC[C@@H](N)CN(C)c1ccnc(-c2cc(Cl)ccc2O)n1` [XX-276, 2-{4-[((R)-2-Amino-butyl)-methyl-amino]-pyrimidin-2-yl}-4-chloro-phenol] showed an IC50 of 0.9 nM.

Reference: patent US20090247519A1, “AMINO-ETHYL-AMINO-ARYL (AEAA) COMPOUNDS AND THEIR USE” (priority 2006, published 2009)
